This is an account of results in ChEMBL document CHEMBL1147725, “Identification and biological characterization of 6-aryl-7-isopropylquinazolinones as novel TRPV1 antagonists that are effective in models of chronic pain” (J Med Chem, 2006).

One may read the IC50 as the concentration needed to halve the response being measured.

Structures are written as SMILES.

For the test, the target named is Transient receptor potential cation channel subfamily V member 1 (Homo sapiens, UniProt Q8NER1). Briefly: Inhibition of calcium influx evoked by capsaicin in human TRPV1 expressing cells by fluorescence assay. Format: functional.
Chain of Transient receptor potential cation channel subfamily V member 1 (Q8NER1 whole entry): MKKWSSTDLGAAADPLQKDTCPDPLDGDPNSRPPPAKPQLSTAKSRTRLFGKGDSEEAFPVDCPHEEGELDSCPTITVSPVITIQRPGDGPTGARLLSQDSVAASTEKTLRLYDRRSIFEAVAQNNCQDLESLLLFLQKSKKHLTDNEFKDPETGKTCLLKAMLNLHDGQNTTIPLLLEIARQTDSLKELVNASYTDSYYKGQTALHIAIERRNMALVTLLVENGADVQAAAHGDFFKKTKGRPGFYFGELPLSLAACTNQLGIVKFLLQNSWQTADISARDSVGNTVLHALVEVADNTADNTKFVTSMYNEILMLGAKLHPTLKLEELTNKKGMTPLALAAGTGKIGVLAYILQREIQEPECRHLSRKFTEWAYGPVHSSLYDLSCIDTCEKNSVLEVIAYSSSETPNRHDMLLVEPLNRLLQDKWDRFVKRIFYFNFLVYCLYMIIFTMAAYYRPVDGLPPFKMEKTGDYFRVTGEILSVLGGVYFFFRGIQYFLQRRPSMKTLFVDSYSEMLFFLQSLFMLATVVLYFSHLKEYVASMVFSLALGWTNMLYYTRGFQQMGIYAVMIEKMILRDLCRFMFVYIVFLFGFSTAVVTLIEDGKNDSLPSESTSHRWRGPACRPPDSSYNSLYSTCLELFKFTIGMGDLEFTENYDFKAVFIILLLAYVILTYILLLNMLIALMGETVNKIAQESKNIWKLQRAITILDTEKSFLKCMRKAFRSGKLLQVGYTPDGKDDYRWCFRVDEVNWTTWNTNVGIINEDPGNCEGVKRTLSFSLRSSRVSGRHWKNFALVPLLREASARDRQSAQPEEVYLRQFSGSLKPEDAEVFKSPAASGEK

Regarding `CCCCOc1cc(-c2cc3c(=O)[nH]c(C)nc3cc2C(C)C)ccc1Cl`, the 50% inhibitory concentration (IC50) was found to be 82 nM.
Under `Oc1cc2c(cc1O)CN(C(=S)NCCc1ccc(Cl)cc1)CCC2` [CAPSAZEPINE] stands 334 nM; under `COCCOc1cc(-c2cc3c(=O)[nH]c(C)nc3cc2C(C)C)ccc1Cl`, 216 nM.
In the case of `Cc1nc2cc(C(C)C)c(-c3ccc(Cl)c(OCCN(C)C)c3)cc2c(=O)[nH]1`, the IC50 was 487 nM.
For `Cc1nc(O)c2cc(-c3ccc4c(c3)OCO4)c(C(C)C)cc2n1`, the IC50 worked out at 31 nM.
`Cc1nc(O)c2cc(-c3ccc(Cl)c(OCCO)c3)c(C(C)C)cc2n1`: the IC50 amounted to 557 nM.
